Measured values reported in the NIST ThermoML archive (doi:10.1016/j.jct.2015.02.004).
Numbers after ± are expanded uncertainties.

Settings: 298.15 K; 101.33 kPa; Liquid; Pycnometric method

Compared with `COC(C)(C)C` [2-methoxy-2-methylpropane], `CCOC(C)=O` [ethyl acetate] is higher in mass density: 734.1 ± 1.9 kg/m3 for the first, 893.4 ± 2.1 kg/m3 for the second.

`CC(C)=O` [acetone] and `CC(C)O` [propan-2-ol] are within error of each other in mass density: 783.8 ± 1.9 kg/m3 for the first, 780.6 ± 1.9 kg/m3 for the second.

Compared with `CC#N` [acetonitrile], `CO` [methanol] is higher in mass density: 776.3 ± 1.9 kg/m3 for the first, 786.3 ± 1.9 kg/m3 for the second.

Compared with `CCCCO` [butan-1-ol], `CCO` [ethanol] is lower in mass density: 805.5 ± 2 kg/m3 for the first, 784.2 ± 1.9 kg/m3 for the second.
